Assay results taken from patent US6028197A, “Dibenzo[a,g]quinolizinium derivatives and the salts thereof” (Hanwha Corporation, priority 1998, dated 2000).
Read-outs that look alike come from different tables or passages of the source.

Biological target: T1, sterol 14-reductase (Rattus norvegicus, UniProt A0ACM8Q6X4)
T1 construct: microsome which was used as an enzyme source of sterol 14-reductase; from tissue; host or cells: liver microsomes of male Sprague-Dawley rats fed lovastatin and cholestyramine
T1 sequence (A0ACM8Q6X4 1-418): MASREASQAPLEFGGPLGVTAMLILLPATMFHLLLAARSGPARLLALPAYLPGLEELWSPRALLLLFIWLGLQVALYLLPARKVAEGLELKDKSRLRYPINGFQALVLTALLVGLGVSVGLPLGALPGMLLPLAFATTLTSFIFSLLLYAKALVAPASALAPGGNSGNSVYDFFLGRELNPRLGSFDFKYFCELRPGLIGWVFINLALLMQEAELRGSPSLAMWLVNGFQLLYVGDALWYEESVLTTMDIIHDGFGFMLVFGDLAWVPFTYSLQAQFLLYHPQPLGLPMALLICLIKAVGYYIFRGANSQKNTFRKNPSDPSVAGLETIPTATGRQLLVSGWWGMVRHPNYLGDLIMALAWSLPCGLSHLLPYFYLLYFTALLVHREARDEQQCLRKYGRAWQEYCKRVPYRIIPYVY
Assay: Inhibition of sterol 14-reductase in rat liver microsomes
Assay type: biochemical

[1] = read-out: Enzyme Activity (relative in vitro activity for sterol 14-reductase, IC50 class)

Experimental: 20 Male Sprague-Dawley rats weighing from 150 to 250 g have been fed for 7 days with a diet containing 0.1% (w/w) Lovastatin and 5% (w/w) Cholestyramine. The animals were fasted for 12 hours before excising liver tissues and then sacrificed by decapitation at midnight. An aqueous solution containing 0.25M of sucrose was injected into the hepatic portal vein to remove all the blood within the liver, and then, the liver was excised. The liver was homogenated with two volumes of buffer solution A (0.1M potassium phosphate, 1 mM reduced glutathione, 0.5 mM EDTA, 20% (v/v) glycerol, pH 7.4) by repeating pestles over 10 times and then, centrifuged with 900×g for 5 minutes to give a supernatant. The supernatant was centrifuged with 12,000×g for 20 minutes. The supernatant obtained was ultracentrifuged with 105,000×g for 90 minutes to give a microsome which was used as an enzyme source of sterol 14-reductase. Assay for sterol 14-reductase was carried out as follows:
60 mmol of 4,4-dimethyl-5α-cholesta-7,14-dien-3β-ol and 5,6-dihydrodibenzo-[a,g]quinolizinium salts (compound no. 2) dissolved in DMSO were added to an assay mixture (total volume 1.0 ml) containing 2 mg of the microsomal protein, 2 mM of NADPH and 25 mg of glucose plus 20 units of glucose oxidase with preincubations under nitrogen at 37° C. for 4 min. unless otherwise specified to establish anaerobic condition. Buffer A (0.1M potassium phosphate buffer, pH 7.4, including 1 mM reduced glutathione, 0.5 mM EDTA, and 20% (v/v) glycerol) used for incubation had been equilibrated with nitrogen, and nitrogen was exchanged for air in all sealed reaction flasks prior to the start of incubations. Incubation of the complete mixture was carried out anaerobically in sealed flasks for 10 min at 37° C. unless otherwise indicated. Incubations were terminated by the addition of 1 ml of ethanolic KOH followed by heating under reflux for 10 min. Sterols were extracted four times with 4 ml of petroleum ether, and the solvent was evaporated to dryness under a nitrogen stream. The resulting residue was dissolved in 200-500 μl of n-hexane for quantification by GLC at high sensitive attenuation. The activity of sterol 14-reductase was determined with the amount of the substrate wherein the double bonds of 14-carbon were reduced (for the amount reduced by 1 mg of the microsome protein for 1 minute).

| SMILES | IC50 [1] | also measured |
| --- | --- | --- |
| CCc1c2[n+](cc3c(OCc4cc5c(cc4Cl)OCO5)c(OC)ccc13)CCc1cc(OC)c(OC)cc1-2 [Compound No. 40, 5,6-dihydro-2,3-dimethoxybenzo[a]-9-(6-chloro)-piperonyloxy-13-ethyl-10-methoxybenzo[g]quinolizinium chloride] | > 100 µM |  |
| C=C(C)COc1c(OC)ccc2c(CC)c3[n+](cc12)CCc1cc(OC)c(OC)cc1-3 [Compound No. 41, 5,6-dihydro-2,3-dimethoxybenzo[a]-13-ethyl-10-methoxy-9-(2-methyl)propenoxybenzo[g]quinolizinium chloride] | > 100 µM |  |
| CCc1c2[n+](cc3c(OCc4ccc(OC(F)(F)F)cc4)c(OC)ccc13)CCc1cc(OC)c(OC)cc1-2 [Compound No. 42, 5,6-dihydro-2,3-dimethoxybenzo[a]-13-ethyl-10-methoxy-9-(4-trifluoromethoxy)benzyloxybenzo[g]quinolizinium chloride] | 10 to 100 µM |  |
| CCc1c2[n+](cc3c(OCc4ccccc4I)c(OC)ccc13)CCc1cc(OC)c(OC)cc1-2 [Compound No. 43, 5,6-dihydro-2,3-dimethoxybenzo[a]-13-ethyl-9-(2-iodo)benzyloxy-10-methoxybenzo[g]quinolizinium chloride] | 10 to 100 µM |  |
| C=C(COc1c(OC)ccc2c(CC)c3[n+](cc12)CCc1cc(OC)c(OC)cc1-3)C[Si](C)(C)C [Compound No. 44, 5,6-dihydro-2,3-dimethoxybenzo[a]-13-ethyl-10-methoxy-9-[(3-trimethylsilyl)propen-2-yl]oxybenzo[g]quinolizinium chloride] |  | IC50 (Enzyme Activity (relative in vitro activity for sterol 14-reductase, IC50 class)): > 100 µM |
| CCCCCCCCCCCCOc1c(OC)ccc2c(CC)c3[n+](cc12)CCc1cc2c(cc1-3)OCO2 [Compound No. 45, 5,6-dihydro-2,3-methylenedioxybenzo[a]-9-dodecoxy-13-ethyl-10-methoxybenzo[g]quinolizinium iodide] | 10 to 100 µM |  |
| CCc1c2[n+](cc3c(OCc4ccc(C)c([N+](=O)[O-])c4)c(OC)ccc13)CCc1cc3c(cc1-2)OCO3 [Compound No. 49, 5,6-dihydro-2,3-methylenedioxybenzo[a]-13-ethyl-10-methoxy-9-(4-methyl-3-nitro)benzyloxybenzo[g]quinolizinium iodide] |  | IC50 (microsomes, read-out: Enzyme Activity (relative in vitro activity for sterol 14-reductase, IC50 class)): 10 to 100 µM |
| CCc1c2[n+](cc3c(OCc4ccc(C(F)(F)F)cc4)c(OC)ccc13)CCc1cc3c(cc1-2)OCO3 [Compound No. 50, 5,6-dihydro-2,3-methylenedioxybenzo[a]-13-ethyl-10-methoxy-9-(4-trifluoromethyl)benzyloxybenzo[g]quinolizinium iodide] | 10 to 100 µM |  |
| CCc1c2[n+](cc3c(OCc4cccc(C(F)(F)F)c4)c(OC)ccc13)CCc1cc3c(cc1-2)OCO3 [Compound No. 51, 5,6-dihydro-2,3-methylenedioxybenzo[a]-13-ethyl-10-methoxy-9-(3-trifluoromethyl)benzyloxybenzo[g]quinolizinium iodide] | 10 to 100 µM |  |
| CCc1c2[n+](cc3c(OCc4c(F)c(F)c(C(F)(F)F)c(F)c4F)c(OC)ccc13)CCc1cc3c(cc1-2)OCO3 [Compound No. 52, 5,6-dihydro-2,3-methylenedioxybenzo[a]-13-ethyl-10-methoxy-9-(2,3,5,6-tetrafluoro-4-trifluoromethyl)benzyloxybenzo[g]quinolizinium iodide] | 10 to 100 µM |  |
| CCc1c2[n+](cc3c(OCc4ccc(-c5ccccc5)cc4)c(OC)ccc13)CCc1cc3c(cc1-2)OCO3 [Compound No. 53, 5,6-dihydro-2,3-methylenedioxybenzo[a]-13-ethyl-10-methoxy-9-(4-phenyl)benzloxybenzo[g]quinolizinium iodide] | 10 to 100 µM |  |
| CCc1c2[n+](cc3c(OCc4ccc(Cl)nc4)c(OC)ccc13)CCc1cc3c(cc1-2)OCO3 [Compound No. 54, 5,6-dihydro-2,3-methylenedioxybenzo[a]-9-(6-chloropyridinyl-3-yl)methoxy-13-ethyl-10-methoxybenzo[g]quinolizinium iodide] | 10 to 100 µM |  |
| CCOc1cc2c(cc1OCC)-c1c(CC)c3ccc(OC)c(OCc4ccc(Cl)nc4)c3c[n+]1CC2 [Compound No. 58, 5,6-dihydro-2,3-diethoxybenzo[a]-9-(6-chloropyridinyl-3-yl)methoxy-13-ethyl-10-methoxybenzo [g]-quinolizinium chloride] | 10 to 100 µM |  |
| CCc1c2[n+](cc3c(OCc4c(F)c(F)c(F)c(F)c4F)c(OC)ccc13)CCc1cc(O)c(O)cc1-2 [Compound No. 59, 5,6-dihydro-2,3-dihydroxybenzo[a]-13-ethyl-10-methoxy-9-(2,3,4,5,6-pentafluoro)benzyloxybenzo[g]quinolizinium chloride] | 10 to 100 µM |  |
| CCCCCCCCCCCCOc1c(OCC)ccc2c(CC)c3[n+](cc12)CCc1cc(OCC)c(OCC)cc1-3 [Compound No. 61, 5,6-dihydro-2,3-diethoxybenzo[a]-9-dodecoxy-10-ethoxy-13-ethylbenzo[g]quinolizinium chloride] | < 1 µM |  |

More lines, main results first:

| IC50 [1] | SMILES | also measured |
| --- | --- | --- |
| < 1 µM | CCc1c2[n+](cc3c(OCc4ccc(C(C)(C)C)cc4)c(OC)ccc13)CCc1cc3c(cc1-2)OCO3 [Compound No. 46, 5,6-dihydro-2,3-methylenedioxybenzo[a]-9-[(4-tert-butyl)benzyloxy]-13-ethyl-10-methoxybenzo[g]quinolizinium iodide] |  |
| < 1 µM | CCc1c2[n+](cc3c(OCc4c(F)c(F)c(F)c(F)c4F)c(OC)ccc13)CCc1cc3c(cc1-2)OCO3 [Compound No. 47, 5,6-dihydro-2,3-methylenedioxybenzo[a]-13-ethyl-10-methoxy-9-(2,3,4,5,6-pentafluoro)benzyloxybenzo[g]-quinolizinium iodide] |  |
| < 1 µM | CCc1c2[n+](cc3c(OCc4cc(OC)c(OC)cc4[N+](=O)[O-])c(OC)ccc13)CCc1cc3c(cc1-2)OCO3 [Compound No. 48, 5,6-dihydro-2,3-methylenedioxybenzo[a]-9-(4,5-dimethoxy-2-nitro)benzyloxy-13-ethyl-10-methoxybenzo[g]-quinolizinium iodide] |  |
| < 1 µM | CCOc1cc2c(cc1OCC)-c1c(CC)c3ccc(OC)c(OCc4ccc(C(C)(C)C)cc4)c3c[n+]1CC2 [Compound No. 55, 5,6-dihydro-2,3-diethoxybenzo[a]-9-[4-(tert-butyl)benzyloxy]-13-ethyl-10-methoxybenzo[g]quinolizinium chloride] |  |
| < 1 µM | CCOc1cc2c(cc1OCC)-c1c(CC)c3ccc(OC)c(OCc4c(F)c(F)c(F)c(F)c4F)c3c[n+]1CC2 [Compound No. 56, 5,6-dihydro-2,3-diethoxybenzo[a]-13-ethyl-10-methoxy-9-(2,3,4,5,6-pentafluoro)benzyloxybenzo[g]quinolizinium chloride] |  |
| < 1 µM | CCOc1cc2c(cc1OCC)-c1c(CC)c3ccc(OC)c(OCc4c(F)c(F)c(C(F)(F)F)c(F)c4F)c3c[n+]1CC2 [Compound No. 57, 5,6-dihydro-2,3-diethoxybenzo[a]-9-(2,3,5,6-tetrafluoro-4-trifluoromethyl)benzyloxy-13-ethyl-10-methoxy-benzo[g]-quinolizinium chloride] |  |
| < 1 µM | CCc1c2[n+](cc3c(OCc4c(F)c(F)c(C(F)(F)F)c(F)c4F)c(OC)ccc13)CCc1cc(O)c(O)cc1-2 [Compound No. 60, 5,6-dihydro-2,3-dihydroxybenzo[a]-13-ethyl-10-methoxy-9-(2,3,5,6-tetrafluoro-4-trifluoromethyl)benzyloxybenzo[g]quinolizinium chloride] |  |
